Data published in PMC3752901 (Clinical cancer research : an official journal of the …, 2013).
Where two headings read alike, the source gives them in different places.

How the values were obtained:
human ABCC4 = target: T1, human ABCC4 (Homo sapiens, UniProt O15439); details: 5 min, 1 μM
T1 sequence (O15439 1-1325): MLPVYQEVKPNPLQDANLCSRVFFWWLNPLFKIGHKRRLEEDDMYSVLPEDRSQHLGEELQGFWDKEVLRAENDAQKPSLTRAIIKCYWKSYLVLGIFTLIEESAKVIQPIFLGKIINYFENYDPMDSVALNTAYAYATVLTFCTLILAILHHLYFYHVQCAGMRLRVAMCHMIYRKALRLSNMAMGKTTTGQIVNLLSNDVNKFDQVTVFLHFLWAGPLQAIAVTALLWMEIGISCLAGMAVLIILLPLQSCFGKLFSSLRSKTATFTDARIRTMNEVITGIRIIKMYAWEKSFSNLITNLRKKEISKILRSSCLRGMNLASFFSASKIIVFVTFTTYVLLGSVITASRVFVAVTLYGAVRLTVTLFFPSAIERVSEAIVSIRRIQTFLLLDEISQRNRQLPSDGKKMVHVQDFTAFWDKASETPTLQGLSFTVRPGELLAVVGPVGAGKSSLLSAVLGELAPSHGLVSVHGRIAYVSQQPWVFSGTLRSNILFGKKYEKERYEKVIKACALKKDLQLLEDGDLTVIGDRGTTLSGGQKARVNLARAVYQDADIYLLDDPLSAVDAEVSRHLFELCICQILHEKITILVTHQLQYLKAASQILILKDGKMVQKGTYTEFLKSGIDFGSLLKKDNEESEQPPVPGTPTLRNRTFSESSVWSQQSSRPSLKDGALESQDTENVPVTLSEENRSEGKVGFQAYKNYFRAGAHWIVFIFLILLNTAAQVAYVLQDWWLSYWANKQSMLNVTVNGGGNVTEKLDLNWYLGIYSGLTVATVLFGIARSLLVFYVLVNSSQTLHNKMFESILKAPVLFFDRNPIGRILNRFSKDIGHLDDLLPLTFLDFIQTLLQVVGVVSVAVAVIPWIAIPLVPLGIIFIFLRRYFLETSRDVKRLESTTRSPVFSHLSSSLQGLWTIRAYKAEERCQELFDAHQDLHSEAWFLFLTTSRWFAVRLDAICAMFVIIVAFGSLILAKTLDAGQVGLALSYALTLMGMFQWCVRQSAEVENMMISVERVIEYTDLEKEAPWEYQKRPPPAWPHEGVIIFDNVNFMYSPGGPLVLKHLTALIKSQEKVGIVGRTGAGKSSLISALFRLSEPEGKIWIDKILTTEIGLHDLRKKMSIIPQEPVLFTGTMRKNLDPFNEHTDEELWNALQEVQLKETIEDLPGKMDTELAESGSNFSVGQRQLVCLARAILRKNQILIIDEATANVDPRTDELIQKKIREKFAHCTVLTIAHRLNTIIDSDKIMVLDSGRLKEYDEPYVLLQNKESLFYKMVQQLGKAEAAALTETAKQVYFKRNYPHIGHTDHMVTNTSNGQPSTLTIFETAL

mOct2 = target: T2, mOct2 (Mus musculus, UniProt O70577); assay: Uptake in HEK293 cells expressing mOct2; assay type: in vitro ADME; details: HEK293, 1 μM
T2 sequence (O70577 1-553): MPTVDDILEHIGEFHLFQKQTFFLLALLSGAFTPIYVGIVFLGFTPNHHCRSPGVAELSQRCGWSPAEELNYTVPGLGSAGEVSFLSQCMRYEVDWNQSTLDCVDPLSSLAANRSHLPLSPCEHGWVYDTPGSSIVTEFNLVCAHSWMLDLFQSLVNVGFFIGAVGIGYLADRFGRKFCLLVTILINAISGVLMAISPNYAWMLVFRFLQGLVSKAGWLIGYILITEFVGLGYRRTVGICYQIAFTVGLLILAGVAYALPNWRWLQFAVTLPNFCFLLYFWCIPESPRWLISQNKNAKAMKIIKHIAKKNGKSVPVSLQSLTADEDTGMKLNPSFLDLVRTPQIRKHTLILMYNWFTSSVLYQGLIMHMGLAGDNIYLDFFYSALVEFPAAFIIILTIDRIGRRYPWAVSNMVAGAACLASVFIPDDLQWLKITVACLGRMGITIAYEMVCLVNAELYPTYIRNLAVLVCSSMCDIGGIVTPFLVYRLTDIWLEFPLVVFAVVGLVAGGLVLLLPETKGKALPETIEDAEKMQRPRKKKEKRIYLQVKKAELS

[1] = cited from earlier work

- accumulation in ABCC4-overexpressing vesicles compared to control vesicles (human ABCC4): 3.0 fold
- intracellular accumulation on overexpression of Oct2 (mOct2): did not alter intracellular accumulation
Structure (SMILES): Cc1nc(Nc2ncc(C(=O)Nc3c(C)cccc3Cl)s2)cc(N2CCN(CCO)CC2)n1 [dasatinib, Dasatinib]
- coefficient of variation in AUC ([1]; adult patients): > 50%
- coefficient of variation in AUC ([1]; pediatric patient population): ≤ 46%
